{"source": "patent US20060110790A1", "about": "“Expression system for large functional proteins” (priority 2002, published 2006)", "key": {"[1]": {"biological_target": "full-length ABCR (Homo sapiens, UniProt P78363)", "sequence (P78363 whole entry)": "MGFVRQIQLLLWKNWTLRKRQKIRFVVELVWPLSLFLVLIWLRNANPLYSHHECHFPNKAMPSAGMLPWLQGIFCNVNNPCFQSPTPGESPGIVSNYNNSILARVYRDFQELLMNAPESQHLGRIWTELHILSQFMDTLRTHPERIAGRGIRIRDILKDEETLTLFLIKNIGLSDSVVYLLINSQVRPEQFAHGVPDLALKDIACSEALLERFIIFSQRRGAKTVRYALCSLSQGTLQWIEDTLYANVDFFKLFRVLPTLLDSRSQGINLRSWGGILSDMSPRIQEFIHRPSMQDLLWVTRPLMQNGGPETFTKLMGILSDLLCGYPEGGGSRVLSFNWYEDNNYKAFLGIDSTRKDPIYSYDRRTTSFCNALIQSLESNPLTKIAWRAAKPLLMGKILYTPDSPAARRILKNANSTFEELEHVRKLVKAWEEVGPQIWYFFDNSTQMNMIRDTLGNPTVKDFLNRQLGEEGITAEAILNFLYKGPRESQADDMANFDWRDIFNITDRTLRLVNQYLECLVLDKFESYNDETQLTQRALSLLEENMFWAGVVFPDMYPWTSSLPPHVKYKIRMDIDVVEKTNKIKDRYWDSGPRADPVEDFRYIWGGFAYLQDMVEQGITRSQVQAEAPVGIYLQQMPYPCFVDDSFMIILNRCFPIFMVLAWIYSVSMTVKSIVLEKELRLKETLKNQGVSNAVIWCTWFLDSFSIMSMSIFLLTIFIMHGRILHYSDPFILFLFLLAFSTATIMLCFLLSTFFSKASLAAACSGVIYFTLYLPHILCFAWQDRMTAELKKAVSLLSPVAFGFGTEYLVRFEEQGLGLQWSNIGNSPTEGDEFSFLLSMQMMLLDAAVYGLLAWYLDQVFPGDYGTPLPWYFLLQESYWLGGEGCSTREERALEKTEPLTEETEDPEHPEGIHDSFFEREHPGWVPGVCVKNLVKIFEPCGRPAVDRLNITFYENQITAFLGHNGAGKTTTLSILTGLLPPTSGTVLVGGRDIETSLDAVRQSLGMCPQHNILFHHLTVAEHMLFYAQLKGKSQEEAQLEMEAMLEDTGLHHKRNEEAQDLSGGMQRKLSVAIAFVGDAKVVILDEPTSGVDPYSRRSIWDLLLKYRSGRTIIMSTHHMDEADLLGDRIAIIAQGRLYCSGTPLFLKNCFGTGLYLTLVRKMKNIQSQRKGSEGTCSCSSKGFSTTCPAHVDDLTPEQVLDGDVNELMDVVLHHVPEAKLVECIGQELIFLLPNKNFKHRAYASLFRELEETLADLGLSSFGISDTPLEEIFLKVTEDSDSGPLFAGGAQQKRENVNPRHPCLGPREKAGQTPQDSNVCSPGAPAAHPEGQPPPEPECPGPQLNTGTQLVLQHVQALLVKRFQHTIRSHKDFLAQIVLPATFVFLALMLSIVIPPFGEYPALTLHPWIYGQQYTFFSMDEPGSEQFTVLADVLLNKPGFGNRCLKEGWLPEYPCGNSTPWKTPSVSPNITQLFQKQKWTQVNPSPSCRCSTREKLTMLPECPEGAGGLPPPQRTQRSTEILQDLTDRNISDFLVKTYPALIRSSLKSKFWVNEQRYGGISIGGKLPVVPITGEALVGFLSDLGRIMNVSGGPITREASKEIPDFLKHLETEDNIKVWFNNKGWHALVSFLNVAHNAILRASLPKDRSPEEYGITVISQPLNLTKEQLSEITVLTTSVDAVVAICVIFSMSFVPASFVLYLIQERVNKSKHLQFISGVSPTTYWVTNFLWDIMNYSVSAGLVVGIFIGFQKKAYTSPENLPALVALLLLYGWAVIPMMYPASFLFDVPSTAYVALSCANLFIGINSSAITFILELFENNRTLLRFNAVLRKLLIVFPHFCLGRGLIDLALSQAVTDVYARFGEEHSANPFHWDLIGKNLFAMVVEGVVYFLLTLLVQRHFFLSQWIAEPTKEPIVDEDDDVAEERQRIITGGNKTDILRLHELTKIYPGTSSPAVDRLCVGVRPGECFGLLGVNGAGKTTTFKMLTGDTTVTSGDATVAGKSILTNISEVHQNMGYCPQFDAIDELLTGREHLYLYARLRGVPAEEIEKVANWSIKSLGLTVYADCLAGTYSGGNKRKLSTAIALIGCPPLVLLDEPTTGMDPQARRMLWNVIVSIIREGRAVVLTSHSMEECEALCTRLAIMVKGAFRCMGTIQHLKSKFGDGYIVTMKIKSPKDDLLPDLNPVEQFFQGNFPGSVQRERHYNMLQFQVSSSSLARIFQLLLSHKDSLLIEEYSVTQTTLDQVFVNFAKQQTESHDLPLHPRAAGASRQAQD", "experiment": "Retinal-stimulated ATPase activity of purified protein reconstituted in lipid vesicles", "format": "biochemical", "parameters": "Membranes from transfected cells expressing either full-length ABCR (lanes 1 & 2) or co-expressing the N and C halves; expressed in transfected cells; host or cells: transfected cells (COS-1 or EBNA293)", "settings": "expressed in COS-1 cells, purified on Rim 3F4 column, 50 μM [α32P]ATP", "procedure": "Membranes (from two 10 cm dishes) were solubilized in 0.5 ml of 1% Triton-X100 in Buffer A (140 mM NaCl, 20 mM Tris-HCl, pH 7.4) for 20 min on ice. For ATPase assays, the membrane preparation step was omitted and the cell suspension was solubilized directly in Buffer B (10 mg/ml soybean phospholipids, 10% glycerol, 1 mM dithiothreitol, 100 mM NaCl, 3 mM MgCl2, 50 mM NaHEPES, pH 7.4) containing 18 mM CHAPS. The supernatant after a 10 min centrifugation at 40,000 rpm (TLA100.4 rotor) was mixed with 50 μl Rim3F4 Sepharose 2B for 1 h at 4° C. The beads were washed 6 times in Buffer A containing 0.2% Triton X-100 or Buffer B containing 10 mM CHAPS and eluted with 4% SDS (for electrophoresis) or 0.2 mg/ml Rim3F4 peptide (for reconstitution and determination of ATPase activity). […]\nATPase activity was measured as described previously (Ahn, J., Wong, J. T., and Molday, R. S. (2000) J Biol Chem 275(27), 20399-405) using 50 μM [α^32P]ATP and thin layer chromatography. The all-trans retinal concentration was determined spectrophotometrically (λ383 nm=42.88 mM^−1 cm^−1). […]\nATPase Activity of Expressed N and C Halves—The basal and retinal activated ATPase activity of full-length ABCR and the N and C halves individually or co-expressed in COS-1 cells was determined after immunoaffinity purification and reconstitution into lipid vesicles. […]"}, "[2]": {"biological_target": "T1, ABCR (Homo sapiens, UniProt P78363)", "T1 construct": "Membranes from transfected cells expressing either full-length ABCR (lanes 1 & 2) or co-expressing the N and C halves; expressed in transfected cells; host or cells: transfected cells (COS-1 or EBNA293)", "T1 sequence (P78363 whole entry)": "as above", "experiment": "8-azido-ATP/ADP nucleotide trapping in membranes from transfected cells", "format": "binding", "settings": "50 μM all-trans retinal, 5 μM 8-azido-[α-32P]ATP, 37° C.", "procedure": "FIG. 7. Nucleotide trapping by ABCR and co-expressed N and C halves. A. Effect of orthovanadate on nucleotide trapping. Membranes from transfected cells were incubated with 5 μM 8-azido-[α-^32P]ATP at 37° C., washed, and tightly bound nucleotides were UV crosslinked. Lane 1, full-length ABCR; lane 2, full-length ABCR incubated with 800 μM orthovanadate; lane 3, co-expressed N and C halves; lane 4, co-expressed N- and C-halves incubated with 800 μM orthovanadate. B. Effect of temperature and retinal on nucleotide trapping. Lane 1, full-length ABCR labeled at 0° C.; lane 2, full-length ABCR labeled at 37° C.; lane 3, full-length ABCR labeled at 37° C. in the presence of 50 μM all-trans retinal; lane 4, co-expressed N and C halves labeled at 0° C.; lane 5, co-expressed N and C halves labeled at 37° C.; lane 6, co-expressed N and C halves labeled at 37° C. in the presence of 50 μM all-trans retinal.\n8-Azido-ATP Trapping—Membranes were incubated with 5 μM 8-azido-[α-^32P]ATP in 50 μl of labeling buffer with or without 800 μM sodium orthovanadate for 10 min at 37° C. All-trans retinal and 50 μM DTT were added where indicated. Binding was stopped by the addition of ice-cold 20 mM Tris-HCl, pH 7.4, the membranes were collected by centrifugation and washed one more time. Samples exposed to orthovanadate were washed in the presence of 800 μM orthovanadate. […]"}}}
{"smiles": "CC1=C(/C=C/C(C)=C/C=C/C(C)=C/C=O)C(C)(C)CCC1", "note": "[all-trans retinal]", "values": [{"measurement": "stimulation of ATPase activity", "setting": "[1]", "result": "1-2 fold"}, {"measurement": "effect on 8-azido ATP/ADP trapping", "setting": "[2]", "result": "not dependent on sodium orthovanadate or influenced"}]}
